Molecular target: T1, CCR2 (Homo sapiens, UniProt P41597)
T1 construct: Membranes were prepared from THP-1 cells; endogenous in cells; host or cells: THP-1 (human acute monocytic leukaemia cells), membrane preparation
Test: CCR2 receptor membrane binding assay ([125I]MCP-1, THP-1 cell membranes, SPA beads)
Settings: THP-1 membranes, [125I]MCP-1, bound radioactivity determined after 8 h; read-out: hKi
Experimental: The above exemplary substances have been tested for binding to CCR2 using a binding assay as outlined herein below:
THP-1 cells (human acute monocytic leukaemia cells) were cultured under standardized conditions at 37° C. and 5% CO2 in a humidified incubator. THP-1 cells were cultivated in RPMI 1640 medium (Gibco 21875) containing 1% MEM-NEAA (Gibso 11140) 2 mM L-glutamine, 1.5 g/L sodium bicarbonate, 4.5 g/L glucose, 10 mM HEPES and 1.0 mM sodium pyruvate, 90%; 10% fetal calf serum (FCS Gibco 10500-064).
Membranes were prepared from THP-1 cells. THP-1 cells were centrifuged at 300×g at 4° C. for 10 min. The cell pellet was resuspended in Phosphate Buffer Saline (PBS, including 10 μM Pefabloc and a protease inhibitor mix ‘complete’, Boehringer Mannheim (1 tablet/50 ml)), to a concentration of […]. The membrane preparation was performed by disrupting the cells by nitrogen […] (at 50 bar, for 1 h) in a “Nitrogen Bombe” (Parr Instrument). Cell debris was removed by centrifugation (800×g at 4° C., 1 min). The supernatant was centrifuged at 80000×g, 4° C. for 30 min to sediment the cell membranes. Usually 50 mg of protein (Bradford assay) were yielded from 1×10E9 cells. The membranes were resuspended in 25 mM HEPES, 25 mM MgCl2, 1 mM CaCl2, 10% Glycerine for storage in aliquots at −80° C. in 25 mM HEPES, 25 mM MgCl2, 1 mM CaCl2, 10% Glycerine and stored at −80° C.
Receptor Membrane Binding Assay:
Perkin Elmer NEX 332 Jod 125 MCP-1, Stock: 2200 Ci/mmol solved in […] assay buffer, stored at −20° C. THP-1 membrane were adjusted with 25 mM HEPES, pH 7.2; 5 mM MgCl2; 0.5 mM CaCl2; 0.2% BSA assay buffer to a concentration of 2.5 μg/15 μl. Amersham Biosciences PVT-WGA Beads (RPNQ0001) were adjusted with assay buffer to a concentration of 0.24 mg/30 μl. For preparation of the membrane-bead-suspension membranes and beads were incubated for 30 min at RT under rotation (60 rpm) with a ratio of 1:2. Test compounds dissolved in 100% DMSO to a concentration of 10 mM and are further diluted with 100% DMSO to 1 mM. All additional compound dilutions were obtained with assay buffer, final 1% DMSO. Compounds, membrane-bead-suspension and [^125I]MCP-1 (ca. 25000 cpm/10 μl) were incubated. Bound radioactivity was determined by scintillation counter after 8 h. Determination of affinity of test compounds (dissociation constant hKi) is calculated by iterative fitting of experimental data using the “easy sys” program, which is based on law of mass action (Schittkowski K. (1994), Numerische Mathematik, Vol. 68, 129-142).

T1 sequence (P41597 whole entry): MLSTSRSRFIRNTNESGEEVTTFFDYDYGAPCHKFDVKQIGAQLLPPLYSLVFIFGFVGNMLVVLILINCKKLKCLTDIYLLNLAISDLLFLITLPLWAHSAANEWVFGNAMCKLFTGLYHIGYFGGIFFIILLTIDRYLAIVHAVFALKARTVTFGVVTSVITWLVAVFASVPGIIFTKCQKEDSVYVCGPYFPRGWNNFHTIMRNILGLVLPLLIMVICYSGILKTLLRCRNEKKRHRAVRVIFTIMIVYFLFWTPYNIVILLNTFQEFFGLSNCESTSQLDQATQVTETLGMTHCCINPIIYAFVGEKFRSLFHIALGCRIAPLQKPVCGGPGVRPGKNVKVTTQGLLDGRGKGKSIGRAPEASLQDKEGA

| Ki [nM] | Compound |
| --- | --- |
| 96 | Cc1c(C(=O)N2CCC(N[C@H]3CCOC[C@H]3F)CC2)ncnc1N1CCc2ccc(Br)cc2C1 [Example 69ac] |
| 9 | COc1c(C(=O)N2CCC(N[C@H]3CCOC[C@H]3OC)CC2)ncnc1N1CCc2ccc(C(F)(F)F)cc2C1 [Example 69b] |
| 28 | COc1c(C(=O)N2CCC(N[C@@H]3CCOC[C@@H]3OC)CC2)ncnc1N1CCc2ccc(OC(F)(F)F)cc2C1 [Example 69c] |
| 11 | COc1c(C(=O)N2CCC(N[C@H]3CCOC[C@H]3OC)CC2)ncnc1N1CCc2ccc(OC(F)(F)F)cc2C1 [Example 69d] |
| 1 | CO[C@@H]1COCC[C@@H]1NC1CCN(C(=O)c2ncnc(N3COc4ccc(C(F)(F)F)cc4C3)c2C)CC1 [Example 69e] |
| 17 | CO[C@@H]1COCC[C@@H]1NC1CCN(C(=O)c2ncnc(N3CCc4ccc(C)cc4C3)c2C)CC1 [Example 69f] |
| 1300 | Cc1c(C(=O)N2CCC(N3CCC(N(C)S(C)(=O)=O)CC3)CC2)ncnc1-n1ccc2cc(C(F)(F)F)ccc21 [Example 69g] |
| 39 | CO[C@@H]1COCC[C@@H]1NC1CCN(C(=O)c2ncnc(N3CCc4ccc(F)cc4C3)c2C)CC1 [Example 69h] |
| 4 | COc1nc(C(=O)N2CCC(N[C@@H]3CCOC[C@@H]3OC)CC2)c(C)c(N2CCc3ccc(C(F)(F)F)cc3C2)n1 [Example 69i] |
| 1 | COc1nc(C(=O)N2CCC(N[C@H]3CCOC[C@H]3OC)CC2)c(C)c(N2CCc3ccc(C(F)(F)F)cc3C2)n1 [Example 69j] |
| 29 | Cc1c(C(=O)N2CCC(NC3CCOCC3F)CC2)ncnc1N1CCc2ccc(C(F)(F)F)cc2C1 (stereo not drawn) [Example 69k] |
| 14 | Cc1c(C(=O)N2CCC(N[C@@H]3CCOC[C@@H]3F)CC2)ncnc1N1COc2ccc(C(F)(F)F)cc2C1 [Example 69l] |
| 16 | Cc1c(C(=O)N2CCC(N[C@@H]3CCOC[C@@H]3F)CC2)ncnc1N1CCc2ccc(C(F)(F)F)cc2C1 [Example 69m] |
| 24 | Cc1c(C(=O)N2CCC(N[C@H]3CCOC[C@H]3F)CC2)ncnc1N1CCc2ccc(C(F)(F)F)cc2C1 [Example 69n] |
| 10 | Cc1c(C(=O)N2CCC(N[C@H]3CCOC[C@H]3F)CC2)ncnc1N1COc2ccc(C(F)(F)F)cc2C1 [Example 69o] |
| 6 | CO[C@@H]1COCC[C@@H]1NC1CCN(C(=O)c2ncnc(N3CCc4cc(C(F)(F)F)ccc4C3)c2C)CC1 [Example 69p] |
| 0.7 | CO[C@H]1COCC[C@H]1NC1CCN(C(=O)c2nc(C3CC3)nc(N3CCc4ccc(C(F)(F)F)cc4C3)c2C)CC1 [Example 69q] |
| 7 | Cc1c(C(=O)N2CCC(NC3CCOCC3)CC2)ncnc1N1CCc2ccc(C(F)(F)F)cc2C1 [Example 69r] |
| 8 | COc1nc(C(=O)N2CCC(NC3CCOCC3F)CC2)c(C)c(N2CCc3ccc(C(F)(F)F)cc3C2)n1 (stereo not drawn) [Example 69s] |
| 5 | COc1nc(C(=O)N2CCC(NC3CCOCC3)CC2)c(C)c(N2CCc3ccc(C(F)(F)F)cc3C2)n1 [Example 69w] |

| Ki [nM] | Compound |
| --- | --- |
| 0.7 | CO[C@@H]1COCC[C@@H]1NC1CCN(C(=O)c2nc(C3CC3)nc(N3CCc4ccc(C(F)(F)F)cc4C3)c2C)CC1 [Example 69x] |
| 7 | CO[C@@H]1COCC[C@@H]1NC1CCN(C(=O)c2ncnc(N3CCc4ccc(Br)cc4C3)c2C)CC1 [Example 69y] |
| 13 | CO[C@H]1COCC[C@H]1NC1CCN(C(=O)c2ncnc(N3CCc4ccc(Br)cc4C3)c2C)CC1 [Example 69z] |
| 3560 | Cc1c(C(=O)N2CCN(C)CC2)ncnc1N1CCc2ccc(C(F)(F)F)cc2C1 [Example 70] |
| 2100 | Cc1c(C(=O)N2CCN(C(C)C)CC2)ncnc1N1CCc2ccc(C(F)(F)F)cc2C1 [Example 71] |
| 104 | Cc1c(C(=O)N2CCC(N3CCC(O)CC3)CC2)ncnc1N1CCc2ccc(C(F)(F)F)cc2C1 [Example 72] |
| 52 | Cc1c(C(=O)N2CCC(N3CCCC3)CC2)ncnc1N1CCc2ccc(C(F)(F)F)cc2C1 [Example 73] |
| 552 | CCN(CC)C1CCN(C(=O)c2ncnc(N3CCc4ccc(C(F)(F)F)cc4C3)c2C)CC1 [Example 74] |
| 657 | CCN(CC)C1CCN(C(=O)c2ncnc(N3CCc4ccc(C(F)(F)F)cc4C3)c2C)C1 (stereo not drawn) [Example 75] |
| 3400 | Cc1c(C(=O)N2CCCN(CCO)CC2)ncnc1N1CCc2ccc(C(F)(F)F)cc2C1 [Example 76] |
| 410 | Cc1c(C(=O)N2CCC(N3CCCC(O)C3)CC2)ncnc1N1CCc2ccc(C(F)(F)F)cc2C1 (stereo not drawn) [Example 77] |
| 1250 | Cc1c(C(=O)N2CCC(C(N)=O)(N3CCCCC3)CC2)ncnc1N1CCc2ccc(C(F)(F)F)cc2C1 [Example 78] |
| 925 | Cc1c(C(=O)N2CCC(N(C)C)CC2)ncnc1N1CCc2ccc(C(F)(F)F)cc2C1 [Example 79] |
| 101 | Cc1c(C(=O)N2CCC(N3CCCCC3)CC2)ncnc1N1CCc2ccc(C(F)(F)F)cc2C1 [Example 80] |
| 2320 | Cc1c(C(=O)N2CCCN(C)CC2)ncnc1N1CCc2ccc(C(F)(F)F)cc2C1 [Example 81] |
| 203 | Cc1c(C(=O)N2CCC(N3CCOCC3)CC2)ncnc1N1CCc2ccc(C(F)(F)F)cc2C1 [Example 82] |
| 698 | Cc1c(C(=O)N2CCC(N3CCC(c4cccc(C(=O)O)c4)CC3)CC2)ncnc1N1CCc2ccc(C(F)(F)F)cc2C1 [Example 83] |
| 41 | CO[C@H]1COCC[C@H]1N(C)C1CCN(C(=O)c2ncnc(N3CCc4ccc(C(F)(F)F)cc4C3)c2C)CC1 [Example 84] |
| 5 | CO[C@@H]1COCC[C@@H]1N(C)C1CCN(C(=O)c2ncnc(N3CCc4ccc(C(F)(F)F)cc4C3)c2C)CC1 [Example 85] |

— US8877745B2, “CCR2 receptor antagonists, method for producing the same, and use thereof as medicaments” (Boehringer Ingelheim International GmbH, priority 2010, dated 2014)
